Measured values as given in patent publication US20080214537A1, “BRIDGED PHENANTHRIDINES” (CARA THERAPEUTICS, INC., priority 2007, published 2008).

Tests used:
[1] = biological target: human CB2 receptor (hCB2) (Homo sapiens, UniProt P34972); assay: cAMP assay (LANCE TR-FRET) in CHO-K1 cells expressing hCB2; assay type: cell-based; settings: for Emax: CHO-K1, read-out: hCB2 % Max Range; for EC50: CHO-K1 cells stably expressing hCB2, intracellular cAMP, NKH-477 prestimulated, average of at least three replicates
Sequence of human CB2 receptor (hCB2) (P34972 whole entry): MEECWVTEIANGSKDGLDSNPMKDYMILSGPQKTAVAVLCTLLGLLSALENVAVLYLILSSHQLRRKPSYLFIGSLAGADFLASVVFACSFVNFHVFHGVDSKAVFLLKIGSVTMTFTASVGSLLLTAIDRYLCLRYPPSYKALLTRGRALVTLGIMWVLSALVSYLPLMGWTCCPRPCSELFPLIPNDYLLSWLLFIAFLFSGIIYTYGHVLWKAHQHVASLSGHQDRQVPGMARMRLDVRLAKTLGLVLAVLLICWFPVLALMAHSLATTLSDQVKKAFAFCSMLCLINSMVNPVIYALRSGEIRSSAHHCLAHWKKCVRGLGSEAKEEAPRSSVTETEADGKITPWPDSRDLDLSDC
Experimental: (§1) The ability of compounds to act as agonists or inverse agonists at human CB2 and CB1 receptors (hCB2, hCB1, respectively) was determined by measuring changes in intracellular cAMP levels. Chinese Hamster Ovary (CHO-K1) cell lines stably expressing hCB2 (Genebank: X74328) or hCB1 (Genebank: X54937) were purchased from Euroscreen (Gosselies, Belgium).
(§2) Cell lines were grown in suspension in EX-CELL 302 CHO Serum-free medium (Sigma, catalog #14324C) supplemented with 1% Fetal Bovine Serum, glutamine and with or without non-essential amino-acids under 0.4 mg/mL G418 selection.
(§3) Receptor mediated responses were determined by measuring changes in intracellular cAMP using LANCE cAMP detection kit (catalog #AD0264, PerkinElmer, Wellesley, Mass.) based on time-resolved fluorescence resonance energy transfer (TR-FRET). Changes in cAMP were determined in cells pre-incubated with IBMX (isobutyl methylxanthine) and prestimulated with NKH-477 (a water soluble forskolin derivative, catalog #1603, Tocris, Ellisville, Mo.) to increase basal cAMP levels as detailed below.
(§4) On the day of the experiment, cells were spun at low speed for 5 min at room temperature. The supernatant was removed and cells were resuspended in stimulation buffer (Hanks Buffered Salt Solution/5 mM HEPES, containing 0.5 mM IBMX (catalog #17018, Sigma) and 0.02% BSA (PerkinElmer, catalog #CR84-100)). Cell clumps were removed by filtering through cell strainer 40 μm (BD Falcon, Discovery Labware, Bedford, Mass.) and diluted to 2×10^5 cells/mL. Antibody supplied with the LANCE cAMP immunoassay kit was then added according to the manufacturer's instructions. An aliquot of cells was taken for un-induced controls. To the remaining cells was added NKH-477 (a water soluble forskolin derivative, Tocris catalog #1603) to a final concentration of 2-8 μM. Cells were then incubated for either 25 or 30 min at room temperature prior to adding to Proxiplates containing test compounds (final DMSO concentration was less than 0.5%) with a Multidrop bulk dispenser, followed by a sixty minute incubation at room temperature. The response was stopped by addition of the detection mix supplied with the LANCE kit.
(§5) The reagents were allowed to equilibrate for three hours prior to reading on an Envision multi-mode detector (PerkinElmer). TR-FRET was measured using a 330-380 nm excitation filter, 615 and 665 nm emission filters, dichroic mirror 380 nm and Z=1 mm.
(§6) Cyclic AMP concentrations in each well were back-calculated from a cAMP standard curve run concurrently during each assay. Each plate contained 16 wells of forskolin stimulated cells and 16 wells of forskolin plus CP55,940-treated. CP55,940-treated cells were treated with CP55,940 (Tocris catalog #0949) at 1 μM and the maximal response was used as the full range (100%) standard. WIN55,212 (Tocris catalog #1038) was used as an internal standard. Concentrations of cAMP were expressed as a percent of the difference of these two groups of wells. Concentration-response data including EC50 (the concentration of compound producing 50% of the maximal response) and intrinsic activity (the percent maximal activation compared to full activation by CP55,940) were determined using a four-parameter non-linear regression algorithm (Xlfit equation 251, IDBS). Assays were performed with at least three replicates per compound and averaged results for the several compounds of the invention are shown in Table I.

[2] = biological target: human CB1 receptor (hCB1) (Homo sapiens, UniProt P21554); assay: cAMP assay (LANCE TR-FRET) in CHO-K1 cells expressing hCB1; assay type: cell-based; settings: activity on hCB1 represents inverse agonism; for Emax: CHO-K1, percent of range defined by CP55,940 (1 μM = 100%), read-out: hCB1 % Max Range; for EC50: CHO-K1 cells stably expressing hCB1, intracellular cAMP, NKH-477 prestimulated
Sequence of human CB1 receptor (hCB1) (P21554 whole entry): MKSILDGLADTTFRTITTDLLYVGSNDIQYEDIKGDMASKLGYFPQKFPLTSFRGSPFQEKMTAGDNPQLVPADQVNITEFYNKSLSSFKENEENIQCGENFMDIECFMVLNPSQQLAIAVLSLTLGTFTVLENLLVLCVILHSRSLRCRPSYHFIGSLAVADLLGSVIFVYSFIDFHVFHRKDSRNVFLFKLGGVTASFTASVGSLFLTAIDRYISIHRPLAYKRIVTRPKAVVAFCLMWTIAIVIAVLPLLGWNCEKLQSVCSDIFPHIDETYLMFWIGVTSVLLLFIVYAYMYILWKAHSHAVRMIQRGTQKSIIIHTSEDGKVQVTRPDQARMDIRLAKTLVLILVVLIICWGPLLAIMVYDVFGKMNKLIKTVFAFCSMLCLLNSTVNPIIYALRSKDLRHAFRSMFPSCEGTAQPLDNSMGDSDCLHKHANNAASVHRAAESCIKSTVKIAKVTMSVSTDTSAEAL
Experimental: as §1, §2, §3, §4, §5
as §6, with “IDBS).” for “IDBS). Assays were performed with at least three replicates per compound and averaged results for the several compounds of the invention are shown in Table I.”

[3] = intrinsic activity: percent maximal activation compared to full activation by CP55,940 (1 μM = 100%)

SMILES: CC(C)S(=O)(=O)N1c2ccc(S(=O)(=O)N(C)C)cc2C2C3CCC(C3)C2C1c1ccccc1 (stereo not drawn) [(50), Bridged 5-(isopropylsulfonyl)-N,N-dimethyl-6-phenyl-5,6,6a,7,8,9,10,10a-octahydrophenanthridine-2-sulfonamide]
- Emax [1, 3]: 81.2%
- EC50 [1]: 1500 nM
- Emax [2]: < 40%
- EC50 [2]: > 10000 nM

SMILES: O=C(Nc1ccc2c(c1)C1C3CCC(C3)C1C(c1ccccc1)N2)c1cocn1 (stereo not drawn) [(13), Bridged N-(6-phenyl-5,6,6a,7,8,9,10,10a-octahydrophenanthridin-2-yl)oxazole-4-carboxamide]
- Emax [1, 3]: 57%
- EC50 [1]: 680 nM
- Emax [2]: < 40%
- EC50 [2]: > 10000 nM

SMILES: CCCCc1nnc(-c2ccc3c(c2)C2C4CCC(C4)C2C(c2ccccc2)N3)o1 (stereo not drawn) [(45), Bridged 2-butyl-5-(6-phenyl-5,6,6a,7,8,9,10,10a-octahydrophenanthridin-2-yl)-1,3,4-oxadiazole]
- Emax [1, 3]: 96.8%
- EC50 [1]: 70.4 nM
- Emax [2]: < 40%
- EC50 [2]: > 10000 nM

SMILES: CN(C1CCCCC1)S(=O)(=O)c1ccc2c(c1)C1C3CCC(C3)C1C(c1ccccc1)N2 (stereo not drawn) [(38), Bridged N-cyclohexyl-N-methyl-6-phenyl-5,6,6a,7,8,9,10,10a-octahydrophenanthridine-2-sulfonamide]
- Emax [1, 3]: 79.5%
- EC50 [1]: 8.5 nM
- Emax [2]: < 40%
- EC50 [2]: > 10000 nM

SMILES: CCCNC(=O)Nc1ccc2c(c1)C1C3CCC(C3)C1C(c1ccc(C)cc1)N2 (stereo not drawn) [(7), Bridged 1-propyl-3-(6-p-tolyl-5,6,6a,7,8,9,10,10a-octahydrophenanthridin-2-yl)urea]
- Emax [1, 3]: < 40%
- EC50 [1]: > 10000 nM
- Emax [2]: < 40%
- EC50 [2]: > 10000 nM

SMILES: CCCCC(=O)Nc1ccc2c(c1)C1C3CCC(C3)C1C(c1ccc(C)cc1)N2 (stereo not drawn) [(29), Bridged N-(6-p-tolyl-5,6,6a,7,8,9,10,10a-octahydrophenanthridin-2-yl)pentanamide]
- Emax [1, 3]: 54.8%
- EC50 [1]: 66.7 nM
- Emax [2]: < 40%
- EC50 [2]: > 10000 nM

SMILES: Cc1nc(-c2ccc3c(c2)C2C4CCC(C4)C2C(c2ccccc2)N3)cs1 (stereo not drawn) [(43), Bridged 2-methyl-4-(6-phenyl-5,6,6a,7,8,9,10,10a-octahydrophenanthridin-2-yl)thiazole]
- Emax [1, 3]: 64.6%
- EC50 [1]: 217 nM
- Emax [2]: 182%
- EC50 [2]: 3850 nM

SMILES: O=C(CC1CCCO1)Nc1ccc2c(c1)C1C3CCC(C3)C1C(c1ccccc1)N2 (stereo not drawn) [(14), Bridged N-(6-phenyl-5,6,6a,7,8,9,10,10a-octahydrophenanthridin-2-yl)-2-(tetrahydrofuran-2-yl) acetamide]
- Emax [1, 3]: 92%
- EC50 [1]: 9.1 nM
- Emax [2]: < 40%
- EC50 [2]: > 10000 nM

SMILES: COCCC(=O)Nc1ccc2c(c1)C1C3CCC(C3)C1C(c1ccc(C)cc1)N2 (stereo not drawn) [(15), Bridged 3-methoxy-N-(6-p-tolyl-5,6,6a,7,8,9,10,10a-octahydrophenanthridin-2-yl)propanamide]
- Emax [1, 3]: < 40%
- EC50 [1]: > 10000 nM
- Emax [2]: 56%
- EC50 [2]: 2360 nM

SMILES: CN(C)S(=O)(=O)c1ccc2c(c1)C1C3CCC(C3)C1C(c1cncnc1)N2 (stereo not drawn) [(30), Bridged N,N-dimethyl-6-(pyrimidin-5-yl)-5,6,6a,7,8,9,10,10a-octahydrophenanthridine-2-sulfonamide]
- Emax [1, 3]: 99.3%
- EC50 [1]: 72.8 nM
- Emax [2]: < 40%
- EC50 [2]: > 10000 nM

SMILES: Cc1ccc(C2Nc3ccc(NC(=O)C4CC4)cc3C3C4CCC(C4)C23)cc1 (stereo not drawn) [(22), Bridged N-(6-p-tolyl-5,6,6a,7,8,9,10,10a-octahydrophenanthridin-2-yl)cyclopropanecarboxamide]
- Emax [1, 3]: 53%
- EC50 [1]: 14 nM
- Emax [2]: 115%
- EC50 [2]: 1810 nM

SMILES: CN(C)S(=O)(=O)c1ccc2c(c1)C1CC=CC1C(c1ccccc1)N2 (stereo not drawn) [(49), N,N-dimethyl-4-phenyl-3a,4,5,9b-tetrahydro-1H-cyclopenta[c]quinoline-8-sulfonamide]
- Emax [1, 3]: < 40%
- EC50 [1]: > 10000 nM
- Emax [2]: 61.8%
- EC50 [2]: 1040 nM

SMILES: O=C(Nc1ccc2c(c1)C1C3CCC(C3)C1C(c1ccccc1)N2)C1CC1 (stereo not drawn) [(19), Bridged N-(6-phenyl-5,6,6a,7,8,9,10,10a-octahydrophenanthridin-2-yl)cyclopropanecarboxamide]
- Emax [1, 3]: 49%
- EC50 [1]: 187 nM
- Emax [2]: 53%
- EC50 [2]: 1700 nM

SMILES: Cn1nccc1C1Nc2ccc(S(N)(=O)=O)cc2C2C3CCC(C3)C12 (stereo not drawn) [(40), Bridged 6-(1-methyl-1H-pyrazol-5-yl)-5,6,6a,7,8,9,10,10a-octahydrophenanthridine-2-sulfonamide]
- Emax [1, 3]: 82.7%
- EC50 [1]: 2000 nM
- Emax [2]: < 40%
- EC50 [2]: > 10000 nM

SMILES: CN(C)S(=O)(=O)c1ccc2c(c1)C1C3CCC(C3)C1C(c1nccs1)N2 (stereo not drawn) [(31), Bridged N,N-dimethyl-6-(thiazol-2-yl)-5,6,6a,7,8,9,10,10a-octahydrophenanthridine-2-sulfonamide]
- Emax [1, 3]: 89.2%
- EC50 [1]: 103 nM
- Emax [2]: < 40%
- EC50 [2]: > 10000 nM

SMILES: CC(=O)Nc1ccc2c(c1)C1C3CCC(C3)C1C(c1ccccc1)N2 (stereo not drawn) [(23), Bridged N-(6-phenyl-5,6,6a,7,8,9,10,10a-octahydrophenanthridin-2-yl)acetamide]
- Emax [1, 3]: 82%
- EC50 [1]: 43 nM
- Emax [2]: 88%
- EC50 [2]: 2610 nM

SMILES: CC(C)S(=O)(=O)Nc1ccc2c(c1)C1C3CCC(C3)C1C(c1ccccc1)N2 (stereo not drawn) [(51), Bridged N-(6-phenyl-5,6,6a,7,8,9,10,10a-octahydrophenanthridin-2-yl)propane-2-sulfonamide]
- Emax [1, 3]: 96.8%
- EC50 [1]: 1.62 nM
- Emax [2]: 100%
- EC50 [2]: 2210 nM

SMILES: O=S(=O)(c1ccc2c(c1)C1C3CCC(C3)C1C(c1ccccc1)N2)N1CCCC1 (stereo not drawn) [(41), Bridged 6-phenyl-2-(pyrrolidin-1-ylsulfonyl)-5,6,6a,7,8,9,10,10a-octahydrophenanthridine]
- Emax [1, 3]: 104%
- EC50 [1]: 0.81 nM
- Emax [2]: < 40%
- EC50 [2]: > 10000 nM

SMILES: CCCNC(=O)Nc1ccc2c(c1)C1C3CCC(C3)C1C(c1ccccc1)N2 (stereo not drawn) [Compound (5d), Bridged 1-(6-phenyl-5,6,6a,7,8,9,10,10a-octahydrophenanthridin-2-yl)-3-propylurea]
- Emax [1, 3]: 73%
- EC50 [1]: 289 nM
- Emax [2]: 46%
- EC50 [2]: 2150 nM

SMILES: O=S(=O)(c1ccc2c(c1)C1C3CCC(C3)C1C(c1c(Cl)cccc1Cl)N2)N1CCCCC1 (stereo not drawn) [(9), Bridged 6-(2,6-dichlorophenyl)-2-(piperidin-1-ylsulfonyl)-5,6,6a,7,8,9,10,10a-octahydrophenanthridine]
- Emax [1, 3]: 75%
- EC50 [1]: 79.4 nM
- Emax [2]: < 40%
- EC50 [2]: > 10000 nM

SMILES: CC(=O)Nc1ccc2c(c1)C1C3CCC(C3)C1C(c1ccc(C)cc1)N2 (single isomer, unassigned) [(25b), Bridged N-(6-p-tolyl-5,6,6a,7,8,9,10,10a-octahydrophenanthridin-2-yl)acetamide]
- EC50 [1]: > 10000 nM
- hCB2 % Max Range [1, 3]: N/A (N/A: Response <40% assay range)
- EC50 [2]: 3540 nM
- hCB1 % Max Range ([2]; percent of range defined by CP55,940 (1 μM = 100%)): 107%
